Measurements as given in patent US5462726A, “Method of inhibiting side effects of solvents containing ricinoleic acid or castor oil or derivatives thereof employing a thromboxane A2 receptor antagonist and pharmaceutical compositions containing such solvents” (priority 1993, dated 1995).
Values after ≈ are worked out from the molar mass of the structure shown. “Also recorded” adds a separate entry of the source. Structures can show the parent of a compound that is named as a salt. Where two headings read alike, the source gives them in different places.

Assays:
[1] = tested on: Cremophor-induced force development in the jugular vein (thromboxane A2 receptors); assay: Inhibition of Cremophor-induced force in the jugular vein; type: cell-based, rabbit; details: for Effect on vasoconstrictor effects of Cremophor (words): indomethacin 10 μM
Procedure: (§1) Male New Zealand white rabbits were euthanized by intravenous barbiturate overdose. The thoracic aorta and the left and right external jugular veins were then removed into warm (37° C.) physiological salt solution (PSS) of the following composition (mM): NaCl, 118.4; KCl, 4.7; CaCl2, 2.5; MgSO4, 1.2; NaHCO3, 24.9; KH2 PO4, 1.2; glucose, 11.1 and EDTA, 0.023; gassed with 95% O2 /5% CO2, pH 7.4. The vessels were cleaned of fat and loose adventitia and subsequently cut into rings 3-4 mm in width. The endothelium was removed from the rings, unless otherwise indicated, by gently rotating a metal probe in the lumen of the ring. The rings were then suspended in water-jacketed (37° C.) 10 ml tissue baths between two wire holders, one of which was attached to a fixed hook and the other to an isometric force transducer. Resting tension was set at 4 g for the aorta and 1 g for the jugular vein. The venous tissues were allowed to stabilize for a period of one hour and then challenged with a maximally effective concentration of bradykinin (1 μM) to evoke a tonic contracture. This response was used as a comparative reference response. Carbachol (1 μM) was introduced into the bath following stabilization of the bradykinin contracture to test for the presence of endothelium. […] The tissues were washed multiple times with fresh PSS and allowed to recover for one hour following complete relaxation from the previous bradykinin response. […] Inhibitors (enzyme or receptor) or their vehicle were introduced into the tissue bath 30 mins prior to the addition of stimulant.
(§2) Cremophor and ricinoleic acid (Sigma Chemical company) were also diluted in ethanol. […] Ricinoleic acid was diluted in ethanol to produce final bath concentrations of (μg/ml; final bath concentration of ethanol in parentheses): 0.1 (0.1%), 0.3 (0.3%), 1.0 (0.37%), 3.0 (0.57%), 10 (0.64%), 30 (0.84%). For reference, 0.1-30 μg/ml ricinoleic acid corresponds to a molar concentration range of 0.335-100.50 μM.
(§3) Force (mean±S.E.) is expressed as a percentage of the corresponding bradykinin or phenylephrine reference response. KB values were determined by Schild analysis and KBapp by the following formula: KBapp =[antagonist]/agonist concentration ratio-1, where agonist concentration ratio=agonist EC50 measured in presence of antagonist/agonist EC50 measured in presence of vehicle. The statistical significance between means was determined using Student's t-test with p<0.05 considered statistically significant.

[2] = target: T1, thromboxane A2 /prostaglandin endoperoxide receptor (Oryctolagus cuniculus, UniProt Q6WQI8); assay: Antagonism of U-46,619-induced force in the jugular vein; type: cell-based; details: rabbit jugular vein
T1 sequence (Q6WQI8 1-233): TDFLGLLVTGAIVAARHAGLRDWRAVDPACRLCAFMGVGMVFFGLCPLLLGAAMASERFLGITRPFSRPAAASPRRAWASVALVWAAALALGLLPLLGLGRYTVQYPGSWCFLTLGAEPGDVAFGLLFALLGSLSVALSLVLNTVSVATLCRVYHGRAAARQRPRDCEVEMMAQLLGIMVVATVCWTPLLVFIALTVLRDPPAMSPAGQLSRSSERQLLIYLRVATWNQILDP
Procedure: as §1, with “stimulant. […]” for “stimulant.”
as §3

[3] = tested on: Cremophor-induced force in the aorta (thromboxane A2 receptors); assay: Antagonism of Cremophor-induced force in the aorta; type: cell-based, rabbit
Procedure: Male New Zealand white rabbits were euthanized by intravenous barbiturate overdose. The thoracic aorta and the left and right external jugular veins were then removed into warm (37° C.) physiological salt solution (PSS) of the following composition (mM): NaCl, 118.4; KCl, 4.7; CaCl2, 2.5; MgSO4, 1.2; NaHCO3, 24.9; KH2 PO4, 1.2; glucose, 11.1 and EDTA, 0.023; gassed with 95% O2 /5% CO2, pH 7.4. The vessels were cleaned of fat and loose adventitia and subsequently cut into rings 3-4 mm in width. The endothelium was removed from the rings, unless otherwise indicated, by gently rotating a metal probe in the lumen of the ring. The rings were then suspended in water-jacketed (37° C.) 10 ml tissue baths between two wire holders, one of which was attached to a fixed hook and the other to an isometric force transducer. Resting tension was set at 4 g for the aorta and 1 g for the jugular vein. […]
as §3

[4] = tested on: ricinoleic acid-induced force in the jugular vein (thromboxane A2 receptors); assay: Antagonism of ricinoleic acid-induced force in the jugular vein; type: cell-based, rabbit; details: for Effect on ricinoleic acid-induced force (words): indomethacin, vein only
Procedure: as §1, with “stimulant. A similar procedure was followed for the aorta except the effects of carbachol (1 μM) were tested against a submaximal concentration of phenylephrine (0.3 μM) and 30 μM phenylephrine was used to establish a reference contracture.” for “stimulant.”
as §2, §3

[5] = target: T2, ricinoleic acid-induced force in the aorta (thromboxane A2 receptors) (Oryctolagus cuniculus, UniProt Q6WQI8); assay: Antagonism of ricinoleic acid-induced force in the aorta; type: cell-based, rabbit
T2 sequence (Q6WQI8 1-233): T1 sequence (Q6WQI8 1-233)
Procedure: as §1, with “stimulant. […]” for “stimulant.”
as §3

[6] = tested on: jugular vein; assay: Effect on ethanol-induced contraction of the jugular vein; type: cell-based, rabbit; details: 0.1 or 1 μM BMS-180291; n=3
[7] = target: thromboxane A2 /prostaglandin endoperoxide receptor; details: against U-46,619-induced force; rat aorta; Ogletree et al 1993; cited from earlier work
[8] = target: T1, thromboxane A2 /prostaglandin endoperoxide receptor; details: against U-46,619-induced force; rabbit aorta; S. Moreland, unpublished; cited from earlier work
[9] = tested on: U-46,619-evoked platelet shape change; details: Ogletree et al 1993; cited from earlier work
[10] = tested on: U-46,619-induced platelet aggregation; details: Ogletree et al 1993; cited from earlier work
[11] = tested on: thromboxane A2 receptors; assay: Potency of U-46,619 across rabbit jugular vein, rabbit aorta and rat aorta; type: cell-based; details: rabbit aorta, rat aorta, present study and cited work
[12] = tested on: tissues with an intact endothelium; assay: Relaxation of endothelium-intact tissues by carbachol; type: cell-based, rabbit; details: Oryctolagus cuniculus; carbachol (1 μM) on bradykinin contracture
Procedure: Male New Zealand white rabbits were euthanized by intravenous barbiturate overdose. The thoracic aorta and the left and right external jugular veins were then removed into warm (37° C.) physiological salt solution (PSS) of the following composition (mM): NaCl, 118.4; KCl, 4.7; CaCl2, 2.5; MgSO4, 1.2; NaHCO3, 24.9; KH2 PO4, 1.2; glucose, 11.1 and EDTA, 0.023; gassed with 95% O2 /5% CO2, pH 7.4. The vessels were cleaned of fat and loose adventitia and subsequently cut into rings 3-4 mm in width. The endothelium was removed from the rings, unless otherwise indicated, by gently rotating a metal probe in the lumen of the ring. The rings were then suspended in water-jacketed (37° C.) 10 ml tissue baths between two wire holders, one of which was attached to a fixed hook and the other to an isometric force transducer. Resting tension was set at 4 g for the aorta and 1 g for the jugular vein. The venous tissues were allowed to stabilize for a period of one hour and then challenged with a maximally effective concentration of bradykinin (1 μM) to evoke a tonic contracture. This response was used as a comparative reference response. Carbachol (1 μM) was introduced into the bath following stabilization of the bradykinin contracture to test for the presence of endothelium. […]

[13] = target: T3, CsA-induced force development in the jugular vein (thromboxane A2 receptors) (Oryctolagus cuniculus, UniProt Q6WQI8); assay: Inhibition of CsA-induced force in the jugular vein; type: cell-based, rabbit; details: for Effect on potency and maximal contractile effect of CsA (words): phentolamine 10 μM
T3 sequence (Q6WQI8 1-233): T1 sequence (Q6WQI8 1-233)
Procedure: as §1, §2, §3

[14] = tested on: jugular vein; assay: Force development in isolated jugular vein rings; type: cell-based, rabbit (male New Zealand white); details: for Force development / vasoconstriction (result in words): cumulative addition, isolated vessel; for EC50: read-out: EC50 for ricinoleic acid-induced force
Procedure: as §1, §2, §3

[15] = target: thromboxane A2 receptor; details: dog coronary artery, Cocks et al 1990; cited from earlier work
[16] = tested on: aorta; assay: Force development in isolated thoracic aorta rings; type: cell-based, rabbit (male New Zealand white)
Procedure: as §1, with “stimulant. […]” for “stimulant.”
as §3

[17] = tested on: rat aorta; assay: Ricinoleic acid force development in rat aorta; type: cell-based
[18] = Solubility in physiological salt solution bath; type: physicochemical; details: pH 7.4, ricinoleic acid in tissue bath, read-out: Concentration at which precipitation begins

Compound: CCCCCNC(=O)c1coc(C2C3CCC(O3)C2Cc2ccccc2CCC(=O)O)n1 (stereo not drawn) [BMS-180291, [1S-[1α, 2α, 3α, 4α)]-2-[[3-[[4-(pentylamino)carbonyl]-2-oxazolyl]-7-oxabicyclo [2.2.1]hept-2-yl]-methyl]benzenepropanoic acid, sodium salt]
- inhibition at 0.1 µM ([1]; Oryctolagus cuniculus, 0.1 μM BMS-180291, Cremophor 39 μg/ml, n=4, read-out: Relaxation of Cremophor-precontracted jugular vein): 85.6 ± 3.9%
- Nature of antagonism of Cremophor-induced responses ([1]; preincubation with BMS-180291 (10-300 nM), sodium salt): consistent with non-competitive antagonism; also recorded: apparently non-competitive fashion
- Kb ([2]; against U-46,619-induced force): 3.6 nM
- Schild slope ([2]; against U-46,619-induced force): 1.0
- Nature of antagonism of U-46,619-induced force ([2]; sodium salt): apparently competitive antagonist
- Effect on Cremophor-induced force in the aorta ([3]; BMS-180291): inhibited
- Kb ([3]; Oryctolagus cuniculus, against Cremophor-induced force, assuming competitive antagonism, 0.03 μM BMS-180291 only, read-out: KBapp): 6.4 nM
- Kb ([4]; Oryctolagus cuniculus, against ricinoleic acid, vein, assuming competition, 0.03 and 0.1 μM BMS-180291 only, read-out: KBapp): 1.9 nM
- Antagonism of ricinoleic acid-induced force ([4]; vein): concentration-dependent antagonism
- Schild slope ([5]; against ricinoleic acid, rabbit aorta): 0.70
- Kb ([5]; against ricinoleic acid, rabbit aorta, assuming competition): 4.3 nM
- Antagonism of ricinoleic acid-induced force ([5]; aorta): concentration-dependent antagonism
- Effect on contractile effects of ethanol [6]: completely refractory
- Kb [7]: 0.6 nM
- Kb [8]: 4 nM
- Nature of antagonism of platelet shape change [9]: apparently competitive fashion
- Nature of inhibition of platelet aggregation [10]: apparently non-competitive fashion

Compound: CCCCCC(O)C=CC1C2CC(CO2)C1CC=CCCCC(=O)O (centres unmarked) [U-46,619, 11,9-epoxymethano-PGH2]
- Potency across the three tissues [11]: approximately equal potency in all three tissues

Compound: C[N+](C)(C)CCOC(N)=O [carbachol]
- Percent relaxation at 1 µM [12]: 50 to 100%

Compound: CC1(C)Oc2ccc(C#N)cc2C(N2CCCC2=O)C1O (centres unmarked) [cromakalim]
- Effect on CsA-induced force ([13]; CsA 3 μg/ml, present results): evoke relaxation of CsA (3 μg/ml CsA)-induced force

Compound: CCO [ethanol]
- Emax at 0.44 % ([14]; Oryctolagus cuniculus, cumulative addition of 0.44% ethanol, n=3, read-out: Force as % of bradykinin reference force): 24.1 ± 3.3%
- Force development / vasoconstriction (result in words) [14]: constrict the vein

Compound: COc1ccc(Cl)cc1C(=O)NCCc1ccc(S(=O)(=O)NC(=O)NC2CCCCC2)cc1 [glyburide]
- Schild slope ([13]; against CsA-induced force): 0.7
- Kb ([13]; against CsA-induced force, Schild analysis, read-out: KB): 600 nM
- Kb ([13]; against CsA-induced force, glyburide 10 μM, n=4, read-out: KBapp): 1500 nM
- inhibition at 10 µM ([13]; read-out: Inhibition (reversal) of CsA-induced contraction): 57.1%
- Kb ([1]; Oryctolagus cuniculus, against Cremophor-induced force, glyburide 10 μM, n=3, read-out: KBapp): 900 nM
- Kb [15]: 600 nM

Compound: COc1ccc2c(c1)c(CC(=O)O)c(C)n2C(=O)c1ccc(Cl)cc1 [indomethacin]
- Effect on vasoconstrictor effects of Cremophor (words) [1]: The contractile effects of neither ricinoleic acid nor Cremophor were prevented
- Effect on vasoconstrictor effects of Cremophor (words) ([1]; listed as Indomethacin): failed to significantly inhibit the vasoconstrictor effects of Cremophor
- Effect on ricinoleic acid-induced force (words) [4]: The contractile effects of neither ricinoleic acid nor Cremophor were prevented
- Effect on ricinoleic acid-induced force (words) ([4]; listed as Indomethacin): no significant effect on ricinoleic acid-induced force

Compound: Cc1ccc(N(CC2=NCCN2)c2cccc(O)c2)cc1 [phentolamine]
- Effect on potency and maximal contractile effect of CsA (words) [13]: insensitive to phentolamine; also recorded: failed to antagonize the effects of CsA
- Effect on potency and maximal contractile effect of CsA (words) ([13]; listed as Phentolamine): significantly affected neither the potency nor the maximal contractile effect of CsA

Compound: CCCCCC[C@@H](O)C/C=C\CCCCCCCC(=O)O [ricinoleic acid]
- EC50 ([14]; Oryctolagus cuniculus, control for indomethacin comparison, n=4): 0.17 ± 0.05 µg/mL
- EC50 ([14]; Oryctolagus cuniculus, in presence of indomethacin, n=4): 0.4 ± 0.11 µg/mL
- EC50 ([14]; Oryctolagus cuniculus, jugular vein, molar conversion): 800 nM
- EC50 ([14]; Oryctolagus cuniculus, jugular vein, n=9): 0.24 ± 0.04 µg/mL
- Force development / vasoconstriction (result in words) [14]: cause vasoconstriction
- Force development / vasoconstriction (result in words) ([14]; listed as Ricinoleic acid): concentration-dependent increases in force
- Fold more potent than Cremophor ([14]; in the vein): 165 times
- Fold more potent in vein than in aorta ([14]; ricinoleic acid, vein vs aorta): approximately 20 times
- Thromboxane A2 agonist character ([14]; summary conclusion): weak thromboxane A2 agonist
- EC50 ([16]; Oryctolagus cuniculus, rabbit aorta, n=5, read-out: EC50 for ricinoleic acid-induced force): 4.7 ± 0.7 µg/mL (≈ 15.7 µM)
- Force development (result in words) ([16]; aorta): concentration-dependent increases in force
- Fold more potent than Cremophor ([16]; in the aorta): 326 times
- Emax at 100 µg/mL ([17]; 100 μg/ml ricinoleic acid, rat aorta, n=4, read-out: Force as % of maximum phenylephrine-induced response): 18.8 ± 2.5%
- EC50 ([17]; rat aorta, n=4, read-out: EC50 for ricinoleic acid-induced force): > 10000 nM
- Sensitivity of rat aorta ([17]; vs vein or rabbit aorta): considerably less sensitive
- solubility [18]: ≥ 100 µg/mL
